Results: patent US20100311790A1 (priority 2007, published 2010)

Assays:
Sclerotinia sclerotiorum = test: Test Examples 2 and 3: preventive effect on Sclerotinia rot disease of cucumber, foliar spray; type: in vivo; conditions: cucumber (Sagami Hanjiro), flowable formulation diluted to 200 ppm, foliar spray before inoculation, 18° C. for 4 days under high humidity
Procedure: (§1) The area of lesions on the test plants at testing was visually observed, and the control effect was evaluated by comparing the area of lesions on test plants treated with the invented compound with the area of lesions on untreated plants.
Test for Showing Preventive Effect on Sclerotinia Rot Disease of Cucumber (Sclerotinia sclerotiorum)
Sand soil was packed in a plastic pot, and seeds of cucumber (variety: Sagami Hanjiro) were sowed therein and grown for 12 days in a greenhouse. […] After spraying, the plant was air-dried and PDA medium containing hyphae of Sclerotinia sclerotiorum was placed on the surface of leaves of the cucumber. After the inoculation, the plant was left at 18° C. for 4 days under high humidity, area of lesions was examined. As a result, the lesion area on the plant treated with the invented compounds (1), (3)-(27) and (28) was less than 10% of the lesion area on the untreated plant.
Sand soil was packed in a plastic pot, and seeds of cucumber (variety: Sagami Hanjiro) were sowed therein and grown for 12 days in a greenhouse. The invented compound (2) was formulated into flowable formulation in accordance with Formulation Example 6, and it was diluted with water to a given concentration (200 ppm) and was sprayed onto the foliage of the cucumber so that a sufficient amount of the compound would be applied to the surface of leaves of the cucumber. […]

Botrytis cinerea = test: Test Example 1: preventive effect on Botrytis disease of cucumber, foliar spray; type: in vivo; conditions: cucumber (Sagami Hanjiro), flowable formulation diluted to 13 ppm, foliar spray before inoculation, 12° C. for 5 days under high humidity
Procedure: as §1
Test for Showing Preventive Effect on Botrytis Disease of Cucumber (Botrytis cinerea)
Sand soil was packed in a plastic pot, and seeds of cucumber (variety: Sagami Hanjiro) were sowed therein and grown for 12 days in a greenhouse. Each of the invented compounds (2), (3), (7), (11), (12), (15), (16), (18), (19), (21), (23), (24) and (27) and the comparative compound (A) was formulated into flowable formulation in accordance with Formulation Example 6, and it was diluted with water to a given concentration (13 ppm) and was sprayed onto the foliage of the cucumber so that a sufficient amount of the compound would be applied to the surface of leaves of the cucumber. After spraying, the plant was air-dried and PDA medium containing spores of Botrytis cinerea was placed on the surface of leaves of the cucumber. After the inoculation, the plant was left at 12° C. for 5 days under high humidity, and then the area of lesions was examined. As a result, the lesion area on the plant treated with the invented compounds (2), (3), (7), (11), (12), (15), (16), (18), (19), (21), (23), (24) and (27) was less than 30% of the lesion area on the untreated plant. […]

SMILES	lesion area on the treated plant as % of the lesion area on the untreated plant (Sclerotinia sclerotiorum)	lesion area on the treated plant as % of the lesion area on the untreated plant (Botrytis cinerea) [%]
C=CCCOc1cccc(CNC(=O)c2ccc3ncccc3c2)c1F [(2)]	less than 10%	–
CC(C)=CCOc1cccc(CNC(=O)c2ccc3ncccc3c2)c1 [comparative compound (A), N-[3-(3-methyl-2-butenyloxy)phenyl]methyl-quinoline-6-carboxamide]	–	98
